Data as given in DBAASP.
In brackets after ≈: the same amount, converted by molar mass. One block for each compound: values may come before it.

Experiments:
Test in all cases: ≥ marks a high value that may be exact or a test limit, other limits are often not marked, values filed in µg/mL are converted to µM
Candida albicans SC5314 = test system: Candida albicans SC5314
Candida krusei ATCC 6258 = test system: Candida krusei ATCC 6258
[1] = test system: Candida parapsilosis ATCC 22019
[2] = test system: Candida tropicalis ATCC 13803
Aureobasidium pullulans = test system: Aureobasidium pullulans
[3] = test system: Bacillus subtilis ATCC 23857
[4] = test system: Candida albicans ATCC 10231
Cladosporium sp. = test system: Cladosporium sp.
[5] = test system: Corynebacterium glutamicum ATCC 13032
[6] = test system: Escherichia coli ATCC 25922
[7] = test system: Escherichia coli MC4100 NR698
[8] = test system: Pseudomonas aeruginosa ATCC 15692
[9] = test system: Pseudomonas aeruginosa ATCC 27853
Saccharomyces cerevisiae = test system: Saccharomyces cerevisiae
[10] = test system: Staphylococcus aureus ATCC 9144
[11] = test system: Staphylococcus epidermidis 5179-R1
[12] = test system: Staphylococcus epidermidis ATCC 35984
Escherichia coli D31 = test system: Escherichia coli D31
[13] = test system: Listeria fleischmannii DSM 24998
Listeria grayi DSM 20601 = test system: Listeria grayi DSM 20601
[14] = test system: Listeria monocytogenes DSM 20600
[15] = test system: Micrococcus luteus DSM 20030
Klebsiella pneumoniae = test system: Klebsiella pneumoniae
[16] = test system: Mycobacterium tuberculosis mc2-6020
[17] = test system: Mycobacterium tuberculosis mc2-6230
[18] = test system: Staphylococcus aureus ATCC 25923
Streptococcus agalactiae = test system: Streptococcus agalactiae
Streptococcus mutans = test system: Streptococcus mutans
[19] = test system: Streptococcus pneumoniae ATCC 49619
Streptococcus pyogenes = test system: Streptococcus pyogenes
Bacillus subtilis PY79 = test system: Bacillus subtilis PY79
[20] = test system: Escherichia coli DH5alpha
[21] = test system: Klebsiella pneumoniae ATCC 700603
[22] = test system: Pseudomonas aeruginosa PA14
[23] = test system: Pseudomonas aeruginosa PAO1
[24] = test system: Staphylococcus aureus ATCC 6538P
[25] = test system: Staphylococcus aureus ATCC 33592
[26] = test system: Staphylococcus aureus NCTC 8530
Aerococcus viridans = test system: Aerococcus viridans
Alternaria brassicicola = test system: Alternaria brassicicola
Ascochyta pisi = test system: Ascochyta pisi
Bacillus megaterium = test system: Bacillus megaterium
Bacillus subtilis = test system: Bacillus subtilis
Botrytis cinerea = test system: Botrytis cinerea
Enterobacter cloacae = test system: Enterobacter cloacae
Escherichia coli D22 = test system: Escherichia coli D22
Fusarium culmorum = test system: Fusarium culmorum
Fusarium haematococcum = test system: Fusarium haematococcum
Micrococcus luteus = test system: Micrococcus luteus
Neurospora crassa = test system: Neurospora crassa
[27] = test system: Pectobacterium carotovorum
Pediococcus acidilactici = test system: Pediococcus acidilactici
Trichoderma viride = test system: Trichoderma viride

MIC (Bacillus subtilis PY79): 25 µM (≈ 57.1 µg/mL)
MIC [6]: 6.25 µM (≈ 14.3 µg/mL)
MIC [20]: 12.5 µM (≈ 28.6 µg/mL)
MIC [21]: 6.25 µM (≈ 14.3 µg/mL)
MIC [22]: ≥ 50 µM
MIC [23]: 25 µM (≈ 57.1 µg/mL)
MIC [24]: 3.12 µM (≈ 7.13 µg/mL)
Compound: CC(C)C[C@H](NC(=O)[C@H](CCCN=C(N)N)NC(=O)[C@@H](NC(=O)[C@H](CCCN=C(N)N)NC(=O)[C@@H](N)CC(C)C)C(C)C)C(=O)N[C@@H](C)C(=O)N[C@@H](CO)C(=O)N[C@@H](Cc1cnc[nH]1)C(=O)N[C@@H](CC(C)C)C(=O)N[C@@H](CCCN=C(N)N)C(=O)N[C@@H](CCCCN)C(=O)N[C@@H](CC(C)C)C(=O)N[C@@H](CCCN=C(N)N)C(=O)N[C@@H](CCCCN)C(=O)N[C@@H](CCCN=C(N)N)C(=O)N[C@@H](CC(C)C)C(=O)N[C@@H](CC(C)C)C(=O)N[C@@H](CCCN=C(N)N)C(=O)O [LRVRLASHLRKLRKRLLR]

MIC [9]: 8 µM (≈ 12.1 µg/mL)
MIC [25]: 4 µM (≈ 6.06 µg/mL)
MIC [26]: 8 µM (≈ 12.1 µg/mL)
Compound: CC[C@H](C)[C@H](NC(=O)[C@H](Cc1ccccc1)NC(=O)[C@H](CC(C)C)NC(=O)[C@H](CCCN=C(N)N)NC(=O)[C@@H](NC(=O)[C@H](CCCCN)NC(=O)[C@@H](NC(=O)[C@H](CC(C)C)NC(=O)[C@@H](N)C(C)C)[C@@H](C)CC)[C@@H](C)O)C(=O)N[C@@H](CCCCN)C(=O)N[C@@H](CCCN=C(N)N)C(=O)N[C@@H](CCCCN)C(=O)O [VLIKTRLFIKRK]

MIC (Aerococcus viridans): 1.73 µM (≈ 3.35 µg/mL)
MIC (Alternaria brassicicola): 7.07 µM (≈ 13.7 µg/mL)
MIC (Ascochyta pisi): 28.3 µM (≈ 54.8 µg/mL)
MIC (Bacillus megaterium): 7.07 µM (≈ 13.7 µg/mL)
MIC (Bacillus subtilis): 28.3 µM (≈ 54.8 µg/mL)
MIC (Botrytis cinerea): 14.1 µM (≈ 27.4 µg/mL)
MIC (Enterobacter cloacae): 7.07 µM (≈ 13.7 µg/mL)
MIC (Escherichia coli D22): 0.849 µM (≈ 1.64 µg/mL)
MIC (Escherichia coli D31): 0.849 µM (≈ 1.64 µg/mL)
MIC (Fusarium culmorum): 14.1 µM (≈ 27.4 µg/mL)
MIC (Fusarium haematococcum): 7.07 µM (≈ 13.7 µg/mL)
MIC (Klebsiella pneumoniae): 3.54 µM (≈ 6.85 µg/mL)
MIC (Micrococcus luteus): 3.54 µM (≈ 6.85 µg/mL)
MIC (Neurospora crassa): 14.1 µM (≈ 27.4 µg/mL)
MIC [27]: 28.3 µM (≈ 54.8 µg/mL)
MIC (Pediococcus acidilactici): 28.3 µM (≈ 54.8 µg/mL)
MIC (Trichoderma viride): 28.3 µM (≈ 54.8 µg/mL)
Compound: CC[C@H](C)[C@H](NC(=O)[C@@H](NC(=O)[C@@H]1CCCN1C(=O)[C@@H](N)C(C)C)[C@@H](C)CC)C(=O)N[C@@H](Cc1ccc(O)cc1)C(=O)N[C@H]1CSSC[C@@H](C(=O)N[C@@H](CCC(N)=O)C(=O)N[C@@H](CCCN=C(N)N)C(=O)N[C@@H](CCSC)C(=O)O)NC(=O)[C@H](CCCCN)NC(=O)CNC(=O)[C@H]([C@@H](C)O)NC(=O)[C@H](CCCN=C(N)N)NC(=O)[C@H](CCCN=C(N)N)NC(=O)[C@H](CC(N)=O)NC1=O [VPIIYCNRRTGKCQRM]

The next lines start with the compound.

Compound: NCCCC[C@H](NC(=O)[C@H](Cc1ccc(O)cc1)NC(=O)[C@H](CCCCN)NC(=O)[C@@H](N)CS)C(=O)N[C@@H](Cc1c[nH]c2ccccc12)C(=O)N[C@@H](CCCN=C(N)N)C(=O)O [CKYKWR]
MIC (Candida albicans SC5314): ≥ 113 µM
MIC (Candida krusei ATCC 6258): ≥ 113 µM
MIC [1]: ≥ 113 µM
MIC [2]: ≥ 56.6 µM

Compound: CC[C@H](C)[C@H](NC(=O)[C@@H](N)CC(=O)O)C(=O)NCC(=O)N[C@@H](CCCCN)C(=O)N[C@@H](Cc1ccc(O)cc1)C(=O)N[C@@H](CS)C(=O)NCC(=O)N[C@@H](Cc1ccc(O)cc1)C(=O)N[C@@H](C)C(=O)N[C@@H](Cc1cnc[nH]1)C(=O)N[C@@H](C)C(=O)N[C@@H](CC(C)C)C(=O)N[C@@H](CC(N)=O)C(N)=O [DIGKYCGYAHALN]
MIC (Aureobasidium pullulans): ≥ 100 µM
MIC [3]: ≥ 100 µM
MIC [4]: > 100 µM
MIC (Cladosporium sp.): ≥ 100 µM
MIC [5]: ≥ 100 µM
MIC [6]: > 100 µM
MIC [7]: ≥ 100 µM
MIC [8]: ≥ 100 µM
MIC [9]: > 100 µM
MIC (Saccharomyces cerevisiae): ≥ 100 µM
MIC [10]: ≥ 100 µM
MIC [11]: ≥ 100 µM
MIC [12]: ≥ 100 µM

Compound: CC[C@H](C)[C@H](N)C(=O)N[C@@H](Cc1ccccc1)C(=O)NCC(=O)N[C@@H](C)C(=O)N[C@H](C(=O)N[C@@H](Cc1c[nH]c2ccccc12)C(=O)N[C@@H](CO)C(=O)NCC(=O)N[C@H](C(=O)N[C@@H](CCCCN)C(=O)N[C@@H](CO)C(=O)N[C@@H](CC(C)C)C(=O)N[C@@H](Cc1ccccc1)C(N)=O)[C@@H](C)CC)[C@@H](C)CC [IFGAIWSGIKSLF]
MIC (Escherichia coli D31): 8 µM (≈ 11.5 µg/mL)
MIC [13]: 4 µM (≈ 5.75 µg/mL)
MIC (Listeria grayi DSM 20601): 8 µM (≈ 11.5 µg/mL)
MIC [14]: 4 µM (≈ 5.75 µg/mL)
MIC [15]: 4 µM (≈ 5.75 µg/mL)

Compound: CC[C@H](C)[C@H](N)C(=O)N[C@@H](CCCN=C(N)N)C(=O)N[C@@H](CCCCN)C(=O)N[C@@H](CC(C)C)C(=O)N[C@@H](CCCCN)C(=O)N[C@@H](CO)C(=O)N[C@@H](Cc1c[nH]c2ccccc12)C(=O)N[C@@H](CCCCN)C(=O)N[C@@H](Cc1c[nH]c2ccccc12)C(=O)N[C@@H](CC(C)C)C(=O)N[C@@H](CCCN=C(N)N)C(=O)N[C@@H](Cc1c[nH]c2ccccc12)C(=O)N[C@@H](CC(C)C)C(=O)O [IRKLKSWKWLRWL]
MIC [6]: 16 µM (≈ 29 µg/mL)
MIC (Klebsiella pneumoniae): 136 µM (≈ 247 µg/mL)
MIC [16]: 16 µM (≈ 29 µg/mL)
MIC [17]: ≥ 68 µM
MIC [9]: 68 µM (≈ 123 µg/mL)
MIC [18]: 32 µM (≈ 58 µg/mL)
MIC (Streptococcus agalactiae): ≥ 32 µM
MIC (Streptococcus mutans): 8 µM (≈ 14.5 µg/mL)
MIC [19]: ≥ 32 µM
MIC (Streptococcus pyogenes): 4 µM (≈ 7.25 µg/mL)
